{"source": "ChEMBL document CHEMBL4118125", "about": "“MK-8325: A silyl proline-containing NS5A inhibitor with pan-genotype activity for treatment of HCV” (Bioorg Med Chem Lett, 2018)", "key": {"[1]": {"experiment": "Volume of distribution at steady state in beagle dog at 1 mg/kg, iv by LC-MS/MS method", "type": "ADME, organism-based, Canis lupus familiaris", "settings": "in vivo, read-out: Vdss"}, "[2]": {"experiment": "Drug level in Sprague-Dawley rat at 5 mg/kg, po after 24 hrs by LC-MS/MS method", "type": "ADME, organism-based", "settings": "in vivo, read-out: Drug uptake"}, "[3]": {"experiment": "Terminal half life in cynomolgus monkey at 1 mg/kg, iv by LC-MS/MS method", "type": "ADME, organism-based, Macaca fascicularis", "settings": "in vivo, read-out: beta t1/2 (converted)"}, "[4]": {"experiment": "Clearance in Sprague-Dawley rat at 2.5 mg/kg, iv by LC-MS/MS method", "type": "ADME, organism-based", "settings": "in vivo"}, "[5]": {"experiment": "Tmax in cynomolgus monkey at 2 mg/kg, po by LC-MS/MS method", "type": "ADME, organism-based, Macaca fascicularis", "settings": "in vivo"}, "[6]": {"experiment": "AUC in cynomolgus monkey at 2 mg/kg, po by LC-MS/MS method", "type": "ADME, organism-based, Macaca fascicularis", "settings": "in vivo"}, "Cynomolgus monkey": {"system": "Cynomolgus monkey", "experiment": "Dose normalized AUC in cynomolgus monkey at 2 mg/kg, po by LC-MS/MS method", "type": "ADME, organism-based, Macaca fascicularis", "settings": "in vivo"}, "[7]": {"experiment": "AUC in beagle dog at 2 mg/kg, po by LC-MS/MS method", "type": "ADME, organism-based, Canis lupus familiaris", "settings": "beagle, in vivo"}, "[8]": {"experiment": "Terminal half life in Sprague-Dawley rat at 2.5 mg/kg, iv by LC-MS/MS method", "type": "ADME, organism-based", "settings": "in vivo, read-out: beta t1/2 (converted)"}, "[9]": {"experiment": "Effective half life in Sprague-Dawley rat at 2.5 mg/kg, iv by LC-MS/MS method", "type": "ADME, organism-based", "settings": "in vivo, read-out: t1/2eff (converted)"}, "[10]": {"experiment": "Effective half life in beagle dog at 1 mg/kg, iv by LC-MS/MS method", "type": "ADME, organism-based, Canis lupus familiaris", "settings": "in vivo, read-out: t1/2eff (converted)"}, "[11]": {"experiment": "Clearance in beagle dog at 1 mg/kg, iv by LC-MS/MS method", "type": "ADME, organism-based, Canis lupus familiaris", "settings": "in vivo"}, "[12]": {"experiment": "Terminal half life in beagle dog at 1 mg/kg, iv by LC-MS/MS method", "type": "ADME, organism-based, Canis lupus familiaris", "settings": "in vivo, read-out: beta t1/2 (converted)"}, "[13]": {"experiment": "Drug level in beagle dog at 2 mg/kg, po after 24 hrs by LC-MS/MS method", "type": "ADME, organism-based, Canis lupus familiaris", "settings": "in vivo, read-out: Drug uptake"}, "[14]": {"experiment": "Volume of distribution at steady state in cynomolgus monkey at 1 mg/kg, iv by LC-MS/MS method", "type": "ADME, organism-based, Macaca fascicularis", "settings": "in vivo, read-out: Vdss"}, "[15]": {"experiment": "Effective half life in cynomolgus monkey at 1 mg/kg, iv by LC-MS/MS method", "type": "ADME, organism-based, Macaca fascicularis", "settings": "in vivo, read-out: t1/2eff (converted)"}, "Rattus norvegicus": {"system": "Rattus norvegicus", "experiment": "Dose normalized AUC in Sprague-Dawley rat at 5 mg/kg, po by LC-MS/MS method", "type": "ADME, organism-based", "settings": "in vivo"}, "[16]": {"experiment": "Oral bioavailability in cynomolgus monkey at 2 mg/kg by LC-MS/MS method", "type": "ADME, organism-based, Macaca fascicularis", "settings": "in vivo"}, "[17]": {"experiment": "Oral bioavailability in Sprague-Dawley rat at 5 mg/kg by LC-MS/MS method", "type": "ADME, organism-based", "settings": "in vivo"}, "[18]": {"experiment": "Oral bioavailability in fasted dog at 2 mg/kg by LC-MS/MS method", "type": "ADME, organism-based, Canis lupus familiaris", "settings": "in vivo"}, "[19]": {"experiment": "Clearance in cynomolgus monkey at 1 mg/kg, iv by LC-MS/MS method", "type": "ADME, organism-based, Macaca fascicularis", "settings": "in vivo"}, "[20]": {"experiment": "Cmax in Sprague-Dawley rat at 5 mg/kg, po by LC-MS/MS method", "type": "ADME, organism-based", "set-up": "dose 5 mg/kg, route oral", "settings": "in vivo"}, "[21]": {"experiment": "Drug level in cynomolgus monkey at 2 mg/kg, po after 24 hrs by LC-MS/MS method", "type": "ADME, organism-based, Macaca fascicularis", "settings": "in vivo, read-out: Drug uptake"}, "[22]": {"experiment": "Volume of distribution at steady state in Sprague-Dawley rat at 2.5 mg/kg, iv by LC-MS/MS method", "type": "ADME, organism-based", "settings": "in vivo, read-out: Vdss"}, "[23]": {"experiment": "Cmax in cynomolgus monkey at 2 mg/kg, po by LC-MS/MS method", "type": "ADME, organism-based, Macaca fascicularis", "set-up": "dose 2 mg/kg, route oral", "settings": "in vivo"}, "[24]": {"experiment": "Cmax in beagle dog at 2 mg/kg, po by LC-MS/MS method", "type": "ADME, organism-based, Canis lupus familiaris", "set-up": "dose 2 mg/kg, route oral", "settings": "in vivo"}, "[25]": {"experiment": "Tmax in beagle dog at 2 mg/kg, po by LC-MS/MS method", "type": "ADME, organism-based, Canis lupus familiaris", "settings": "in vivo"}, "[26]": {"experiment": "Oral bioavailability in beagle dog at 2 mg/kg by LC-MS/MS method", "type": "ADME, organism-based, Canis lupus familiaris", "settings": "in vivo"}, "Canis familiaris": {"system": "Canis familiaris", "experiment": "Dose normalized AUC in beagle dog at 2 mg/kg, po by LC-MS/MS method", "type": "ADME, organism-based, Canis lupus familiaris", "settings": "in vivo"}, "[27]": {"experiment": "Tmax in Sprague-Dawley rat at 5 mg/kg, po by LC-MS/MS method", "type": "ADME, organism-based", "settings": "in vivo"}, "[28]": {"experiment": "AUC in Sprague-Dawley rat at 5 mg/kg, po by LC-MS/MS method", "type": "ADME, organism-based", "settings": "in vivo"}}}
{"molecule": "COC(=O)N[C@H](C(=O)N1CC(F)(F)C[C@H]1c1ncc(-c2ccc(-c3ccc4c(ccc5nc([C@@H]6C[Si](C)(C)CN6C(=O)[C@@H](NC(=O)OC)C(C)C)[nH]c54)c3)cc2)[nH]1)C(C)C.Cl.Cl", "values": [{"measurement": "Vd", "setting": "[1]", "result": 1.3, "unit": "L/kg"}, {"measurement": "concentration at 24 h", "setting": "[2]", "result": 51, "unit": "nM"}, {"measurement": "half-life", "setting": "[3]", "result": 20, "unit": "h"}, {"measurement": "clearance", "setting": "[4]", "result": 5.6, "unit": "mL/min/kg"}, {"measurement": "Tmax", "setting": "[5]", "result": 4.7, "unit": "h"}, {"measurement": "AUC", "setting": "[6]", "result": 4, "unit": "µM·h"}, {"measurement": "AUC/dose", "setting": "Cynomolgus monkey", "result": 2, "unit": "µM·h/mg/kg"}, {"measurement": "AUC", "setting": "[7]", "result": 4.2, "unit": "µM·h"}, {"measurement": "half-life", "setting": "[8]", "result": 9.7, "unit": "h"}, {"measurement": "half-life", "setting": "[9]", "result": 7.6, "unit": "h"}, {"measurement": "half-life", "setting": "[10]", "result": 18, "unit": "h"}, {"measurement": "clearance", "setting": "[11]", "result": 0.8, "unit": "mL/min/kg"}, {"measurement": "half-life", "setting": "[12]", "result": 26, "unit": "h"}, {"measurement": "concentration at 24 h", "setting": "[13]", "result": 40, "unit": "nM"}, {"measurement": "Vd", "setting": "[14]", "result": 1.7, "unit": "L/kg"}, {"measurement": "half-life", "setting": "[15]", "result": 17, "unit": "h"}, {"measurement": "AUC/dose", "setting": "Rattus norvegicus", "result": 1, "unit": "µM·h/mg/kg"}, {"measurement": "bioavailability", "setting": "[16]", "result": 11.7, "unit": "%"}, {"measurement": "bioavailability", "setting": "[17]", "result": 28, "unit": "%"}, {"measurement": "bioavailability", "setting": "[18]", "result": 9, "unit": "%"}, {"measurement": "clearance", "setting": "[19]", "result": 1.2, "unit": "mL/min/kg"}, {"measurement": "Cmax", "setting": "[20]", "result": 330, "unit": "nM"}, {"measurement": "concentration at 24 h", "setting": "[21]", "result": 55, "unit": "nM"}, {"measurement": "Vd", "setting": "[22]", "result": 3.7, "unit": "L/kg"}, {"measurement": "Cmax", "setting": "[23]", "result": 180, "unit": "nM"}, {"measurement": "Cmax", "setting": "[24]", "result": 270, "unit": "nM"}, {"measurement": "Tmax", "setting": "[25]", "result": 2.7, "unit": "h"}, {"measurement": "bioavailability", "setting": "[26]", "result": 8.7, "unit": "%"}, {"measurement": "AUC/dose", "setting": "Canis familiaris", "result": 2.1, "unit": "µM·h/mg/kg"}, {"measurement": "Tmax", "setting": "[27]", "result": 5.3, "unit": "h"}, {"measurement": "AUC", "setting": "[28]", "result": 5, "unit": "µM·h"}]}
